Laboratory results published in article PMC7365463, “Oxfendazole mediates macrofilaricidal efficacy against the filarial nematode Litomosoides sigmodontis in vivo and inhibits Onchocerca spec. motility in vitro” (PLoS Neglected Tropical Diseases, 2020).
pIC50: −log10 of the molar value. Read-outs that look alike come from different tables or passages of the source.

Legend:
[1] = test system: AMES bacterial assay; conditions: in vitro; cited from earlier work
[2] = test system: Onchocerca gutturosa adult male worms; assay: O. gutturosa adult male worm 5-day motility assay
[3] = test system: Brugia pahangi; conditions: jirds, necropsy 5 weeks p.t., ref Surin 1990 (Ref. 11), cited from earlier work
[4] = rats; cited from earlier work
[5] = test system: Onchocerca volvulus pre-adult L5 worms; assay: O. volvulus pre-adult (L5) worm motility assay; conditions: read-out: IC50 of motility inhibition
Protocol: Cryopreserved O. volvulus L3 were thawed, washed and co-cultured with normal human PBMC as previously described. […] The L4 larvae were then transferred into a transwell (Sigma #CLS3472), ~10 L4 per transwell within a 24-well plate and over a monolayer comprised of Human Umbilical Vein Endothelial Cells (HUVEC; Lonza Inc., Allendale, NJ) seeded at a density of 1 x 10^4 cells per well. The larvae were cultured for 80 days using L4 complete media: 1:1 NCTC-109: MEM-alpha and EBM-2 (Clonetics EBM-2 Lonza# CC-3156) at a 60:40 ratio. […] Medium was exchanged 3 times a week and fresh HUVEC monolayers were prepared weekly. A week prior to performing the drug screening assay, the L4 day 80 that has molted to pre-adult worms, L5, were transferred from the transwells into a small petri dish containing fresh complete media. 7–10 L5 worms were retrieved from the petri dish and placed in new transwells containing a freshly prepared HUVEC monolayer. […] After 14 days of treatment, the drug containing media was replaced by complete media without drug. Continuing this assay for a further 19 days, the worms were supplied with fresh media every 2–3 days and the weekly use of fresh HUVEC monolayers. […] All drug concentrations were tested in duplicate. […] IC50 values were calculated using Graph Pad Prism v8.3.

[6] = test system: Onchocerca lienalis microfilariae; assay: O. lienalis microfilariae 5-day motility assay; conditions: 120 h
[7] = test system: Litomosoides sigmodontis; design: method as in Reddy 1983 (Ref. 15); conditions: L3 (mite), Mastomys natalensis, patent phase, necropsy 43 days p.t., ref Reddy 1983 (Ref. 15), cited from earlier work
[8] = human
[9] = test system: L. sigmodontis microfilariae; assay: L. sigmodontis microfilariae-injected naïve mice; type: in vivo, Litomosoides sigmodontis; conditions: mice injected with 100,000 microfilariae, BID 2 x 12.5 mg/kg per os for 5 days
Protocol: To investigate the in vivo efficacy of oxfendazole on microfilariae, microfilariae were isolated from peripheral blood of L. sigmodontis-infected cotton rats according to Chandrashekar et al. (1984) using a sucrose percoll gradient. 100,000 microfilariae were injected into the tail vein of naïve mice as previously described. Microfilariae-injected mice were treated with a commercial formulation of oxfendazole (Dolthene) twice daily with 2 x 12.5 mg/kg per os. As a positive control, additional mice were treated with a single intraperitoneal dose of ivermectin (5 mg/kg) in DMSO/PEG400/H20dest with a ratio of 1:7:2 according to Halliday et al.. Control animals received no treatment.

[10] = design: method as in earlier work; conditions: dogs; cited from earlier work
[11] = test system: Litomosoides sigmodontis; assay: Patent L. sigmodontis infection in jirds (adult worms, microfilaremia, embryogenesis); conditions: for jirds with few microfilariae in the peripheral blood: between weeks 14 and 16 after treatment
[12] = test system: mammalian tubulin; design: method as in PMID 6712717, PMID 1554382; conditions: cited from earlier work
[13] = test system: Onchocerca gutturosa adult male worms; assay: O. gutturosa adult worm MTT/formazan viability assay; conditions: 120 h
[14] = test system: Brugia pahangi; design: method as in Reddy 1983 (Ref. 15); conditions: L3 (SC), Mastomys natalensis, patent phase, necropsy 43 days p.t., ref Reddy 1983 (Ref. 15), cited from earlier work

In the case of `COC(=O)Nc1nc2ccc([S+]([O-])c3ccccc3)cc2[nH]1` (stereo not shown) [oxfendazole], the “toxicity in AMES bacterial assay” value [1] is listed as “did not exhibit toxicity”, the “Motility Reduction (%)” value ([2]; 1.25 x 10^-5 M, 24 h) is listed as 10% and the “Motility Reduction (%)” value ([2]; 1.25 x 10^-5 M, 48 h) is listed as 3%. The “Motility Reduction (%)” value ([2]; 1.25 x 10^-5 M, 72 h) was 23%, the “Motility Reduction (%)” value ([2]; 1.25 x 10^-5 M, 96 h) was 31% and the “Motility Reduction (%)” value ([2]; 1.25 x 10^-5 M, 120 h) was 40%. For the same molecule, the “Motility Reduction (%)” value ([2]; 3.1 x 10^-6 M, 24 h) was 10%, the “Motility Reduction (%)” value ([2]; 3.1 x 10^-6 M, 48 h) was 5% and the “Motility Reduction (%)” value ([2]; 3.1 x 10^-6 M, 72 h) was 33%. For the same molecule, the “Motility Reduction (%)” value ([2]; 3.1 x 10^-6 M, 96 h) was 31%, the “Motility Reduction (%)” value ([2]; 3.1 x 10^-6 M, 120 h) was 40% and the “Motility Reduction (%)” value ([2]; 5.0 x 10^-5 M, 24 h) was 16%. The “Motility Reduction (%)” value ([2]; 5.0 x 10^-5 M, 48 h) was 9%, the “Motility Reduction (%)” value ([2]; 5.0 x 10^-5 M, 72 h) was 29% and the “Motility Reduction (%)” value ([2]; 5.0 x 10^-5 M, 96 h) was 33%. For the same molecule, the “Motility Reduction (%)” value ([2]; 5.0 x 10^-5 M, 120 h) was 44%, the “Motility Reduction (%)” value ([2]; 7.8 x 10^-7 M, 24 h) was 4% and the “Motility Reduction (%)” value ([2]; 7.8 x 10^-7 M, 48 h) was 5%. The “Motility Reduction (%)” value ([2]; 7.8 x 10^-7 M, 72 h) was 20%, the “Motility Reduction (%)” value ([2]; 7.8 x 10^-7 M, 96 h) was 31% and the “Motility Reduction (%)” value ([2]; 7.8 x 10^-7 M, 120 h) was 38%. For the same molecule, the “Reduction of worm burden” value ([3]; 15Ad (IP), SC 50-25-12.5mg/kg 5 cons. days, 4 days p.i.) was 100%, the “Reduction of worm burden” value ([3]; 50L3 (IP), SC 25mg/kg 5 cons. days, 70 days p.i.) was 93.5% and the “Reduction of worm burden” value ([3]; 50L3 (IP), SC 50mg/kg 5 cons. days, 70 days p.i.) was 100%. For the same molecule, the “subacute toxicity, behavioral effects” value [4] was “did not raise safety concerns”, the pIC50 ([5]; 336 h, day 14 (14 days drug exposure)) was 5.12 and the pIC50 ([5]; day 19 of culture (14 days drug, 5 days without drug)) was 7.54. It also gave a pIC50 ([5]; day 33 of culture (14 days drug, 19 days without drug)) of 7.99, a microfilariae motility decrease ([6]; 1.25·10^−5 M) of 53% and a microfilariae motility decrease ([6]; 5·10^−5 M) of 67%. The “effect on microfilariae motility” value ([6]; concentrations lower than 1.25·10^−5 M) was “No effect”, the “Reduction of worm burden” value ([7]; SC 100mg/kg 5 cons. days) was 100% and the “Reduction of worm burden” value ([7]; per os 150mg/kg 5 cons. days) was 0%. It also gave a clearance [8] of about 0.4 mL/min/kg, a Vd ([8]; Vol. of Distribution (Vss), Final) of about 0.5 L/kg and a CLhep predicted ([8]; hepatocytes) of 0.4 mL/min/kg. The bioavailability ([8]; po) was 30%, the “direct microfilaricidal effect in vivo” value [9] was “no direct microfilaricidal effect” and the cardiovascular effects [10] was “did not raise safety concerns”. The “jirds with few microfilariae in the peripheral blood” value ([11]; 2 x 5 mg/kg BID PO 10 days) was “one jird out of four”, the “jirds with few microfilariae in the peripheral blood” value ([11]; 2 x 12.5 mg/kg BID PO 10 days) was “one jird out of five” and the “embryogenesis in recovered female worms (embryogram)” value ([11]; jirds, 2 x 5 mg/kg BID PO 10 days, 16 weeks after treatment start) was “embryogenesis was inhibited”. The “animals with complete clearance of adult worms” value ([11]; jirds, PO BID 2 x 5 mg/kg for 10 days from 12 wpi, 16 weeks after treatment start) was “two animals out of four”, the “animals with complete clearance of adult worms” value ([11]; jirds, PO BID 2 x 12.5 mg/kg for 10 days from 12 wpi, 16 weeks after treatment start) was “four animals out of five” and the “microfilariae cleared from the peripheral blood” value ([11]; jirds, both oxfendazole groups (2 x 12.5 and 2 x 5 mg/kg BID PO 10 days), 3 weeks after treatment) was “more than 99%”. For the same molecule, the “inhibition of mammalian tubulin polymerization” value [12] was “poor inhibition”, the “MTT Reduction (%)” value ([13]; 1.25 x 10^-5 M) was 12% and the “MTT Reduction (%)” value ([13]; 3.1 x 10^-6 M) was 17%. The “MTT Reduction (%)” value ([13]; 5.0 x 10^-5 M) was 11%, the “MTT Reduction (%)” value ([13]; 7.8 x 10^-7 M) was 7% and the “Reduction of worm burden” value ([14]; SC 100mg/kg 5 cons. days) was 0%. The “Reduction of worm burden” value ([14]; per os 150mg/kg 5 cons. days) was 33%.
